Values of other authors in patent US8097283B2, “Methods and compositions for imaging” (Mount Sinai School of Medicine, priority 2004, dated 2012).
Where two headings read alike, the source gives them in different places. Values belong to the molecule of their own block, whether it stands above or below them.

Key:
[1] = 0.5 T, 37° C.
[2] = not given; remark: listed apart in the source
[3] = mouse

Osmolality (concentration 0.5M): 1.96 osmol/kg | r1 [1]: 3.8 mM⁻¹ s⁻¹ | Viscosity ([2]; concentration 0.5M): 2.9 cP
Molecule: O=C([O-])CN(CCN(CC(=O)[O-])CC(=O)O)CCN(CC(=O)[O-])CC(=O)O.[Gd+3] [Gadopenetate, Gd-DTPA]

r1 [1]: 3.6 mM⁻¹ s⁻¹
Molecule: O=C([O-])CN1CCN(CC(=O)[O-])CCN(CC(=O)[O-])CCN(CC(=O)[O-])CC1.[Gd+3] [Gadoterate, Gd-DOTA]

r1 [1]: 4.7 mM⁻¹ s⁻¹
Molecule: Gd-DTPA-BMEA [Gadoversetamide]

r1 [1]: 3.7 mM⁻¹ s⁻¹
Molecule: Gd-HPDO3A [Gadoteridol]

More lines, now with the values behind:

Molecule: O=C([O-])CN1CCN(CC(=O)[O-])CCN([C@H](CO)[C@H](O)CO)CCN(CC(=O)[O-])CC1.[Gd+3] (racemic) [Gadobutrol, Gd-DO3A-butrol]
r1 [1]: 3.6 mM⁻¹ s⁻¹

Molecule: CNC[C@H](O)[C@@H](O)[C@H](O)[C@H](O)CO.CNC[C@H](O)[C@@H](O)[C@H](O)[C@H](O)CO.O=C([O-])CN(CCN(CC(=O)[O-])CC(=O)O)CCN(CC(=O)O)C(COCc1ccccc1)C(=O)[O-].[Gd+3] (stereo not drawn) [Gadobenate, Gd-BOPTA]
r1 [1]: 4.4 mM⁻¹ s⁻¹

Molecule: Mn-DPDP [Mangafodipir]
Osmolality (concentration 0.01M): 0.29 osmol/kg | r1 [1]: 1.9 mM⁻¹ s⁻¹ | Viscosity ([2]; concentration 0.01M): 0.7 cP

B1: HDL-apoAI: apoAI moiety of HDL in the circulation of a mouse (protein, UniProt Q00623 25-264, looked up)
Apolipoprotein A-I: DEPQSQWDKVKDFANVYVDAVKDSGRDYVSQFESSSLGQQLNLNLLENWDTLGSTVSQLQERLGPLTRDFWDNLEKETDWVRQEMNKDLEEVKQKVQPYLDEFQKKWKEDVELYRQKVAPLGAELQESARQKLQELQGRLSPVAEEFRDRMRTHVDSLRTQLAPHSEQMRESLAQRLAELKSNPTLNEYHTRAKTHLKTLGEKARPALEDLRHSLMPMLETLKTQVQSVIDKASETLTAQ
t1/2 in the circulation [3]: roughly 10 h
